Reference: ChEMBL document CHEMBL6182935, “Discovery of a Novel Silybin Derivative for the Treatment of Metabolic Dysfunction-Associated Steatohepatitis” (J Med Chem, 2025)
Values after ≈ are worked out from the molar mass of the structure shown. Active and inactive are the calls of the source. The calls are words filed in the database; no cut-off is given here.

Legend:
[1] = Antioxidant activity assessed as inhibition of superoxide anion scavenging activity incubated for 5 mins in presence of pyrogallol; type: functional
[2] = Solubility in […] incubated for 10 mins; type: physicochemical
[3] = Antioxidant activity assessed as inhibition of DPPH free radical scavenging activity incubated for 30 mins under dark condition; type: functional
[4] = Solubility in methanol incubated for 10 mins; type: physicochemical
[5] = Solubility in ethyl acetate incubated for 10 mins; type: physicochemical
[6] = Inhibition of lipid peroxidation in egg yolk (unknown origin) at 100 uM preheated with compound and FeSO4 for 15 mins followed by TCA/TBA addition measured after 15 mins by absorbance based assay relative to control; type: functional, tissue-based; design: scale not given: the % may be the effect or the level left; conditions: time 30.0 min
[7] = Antioxidant activity assessed as clearing rate incubated for 5 mins in presence of pyrogallol by superoxide anion scavenging assay; type: functional
[8] = Antioxidant activity assessed as clearing rate incubated for 30 mins under dark condition by DPPH free radical scavenging assay; type: functional
[9] = Inhibition of lipid peroxidation in egg yolk (unknown origin) preheated with compound and FeSO4 for 15 mins followed by TCA/TBA addition measured after 15 mins by absorbance based assay; type: functional, tissue-based
[10] = Solubility in water incubated for 10 mins; type: physicochemical
[11] = Toxicity in male Sprague-Dawley rat model of CCl4-induced ALI assessed as animal growth at 100 mg/kg, IG qd pretreated with compound for 7 days followed by CCl4 administration after 2 hrs post-compound treatment measured after 16 hrs post-CCl4 injection; type: organism-based; conditions: in vivo, po, 186 h
Rattus norvegicus [12] = assay: (§1) Hepatoprotective activity in male Sprague-Dawley rat model of CCl4-induced ALI assessed as reduction in white granular fat in liver at 100 mg/kg, IG qd pretreated with compound for 7 days followed by CCl4 administration after 2 hrs post-compound treatment measured after 16 hrs post-CCl4 injection; type: functional, organism-based; conditions: time 186.0 hrs
Mus musculus [13] = assay: Anti-MASH activity in HFD-fed CCl4-treated male C57BL/6 mouse assessed as reduction in steatosis in liver at 150 mg/kg, po qd treated for 4 weeks by H and E/Oil red O staining based analysis; type: functional, organism-based
Rattus norvegicus [14] = assay: (§2) Hepatoprotective activity in male Sprague-Dawley rat model of CCl4-induced ALI assessed as reduction in yellowing of liver at 100 mg/kg, IG qd pretreated with compound for 7 days followed by CCl4 administration after 2 hrs post-compound treatment measured after 16 hrs post-CCl4 injection; type: functional, organism-based; conditions: time 186.0 hrs
Rattus norvegicus [15] = assay: Hepatoprotective activity in male Sprague-Dawley rat model of CCl4-induced ALI assessed as reduction in roughened surface in liver at 100 mg/kg, IG qd pretreated with compound for 7 days followed by CCl4 administration after 2 hrs post-compound treatment measured after 16 hrs post-CCl4 injection; type: functional, organism-based; conditions: time 186.0 hrs
[16] = Cmax in overnight-fasted male Sprague-Dawley rat at 150 mg/kg, po measured up to 12 hrs by HPLC analysis; type: ADME, organism-based; conditions: in vivo
Rattus norvegicus [17] = assay: Hepatoprotective activity in male Sprague-Dawley rat model of CCl4-induced ALI assessed as restoration of serum AST level at 100 mg/kg, IG qd pretreated with compound for 7 days followed by CCl4 administration after 2 hrs post-compound treatment measured after 16 hrs post-CCl4 injection; type: functional, organism-based; conditions: time 186.0 hrs
Rattus norvegicus [18] = assay: as §2, with “vacuoles” for “yellowing of liver”, “injection by H and E staining based analysis” for “injection”; type: functional, organism-based; conditions: time 186.0 hrs
Mus musculus [19] = assay: Anti-MASH activity in HFD-fed CCl4-treated male C57BL/6 mouse assessed as reduction in hepatic cholesterol level at 150 mg/kg, po qd treated for 4 weeks by ELISA; type: functional, organism-based
[20] = AUC (0 to infinity) in overnight-fasted male Sprague-Dawley rat at 150 mg/kg, po measured up to 12 hrs by HPLC analysis; type: ADME, organism-based; conditions: in vivo
[21] = Apparent volume of distribution during terminal phase in overnight-fasted male Sprague-Dawley rat at 150 mg/kg, po measured up to 12 hrs by HPLC analysis; type: ADME, organism-based; conditions: in vivo, read-out: Vz/F
Rattus norvegicus [22] = assay: Hepatoprotective activity in male Sprague-Dawley rat model of CCl4-induced ALI assessed as restoration of serum LDH level at 100 mg/kg, IG qd pretreated with compound for 7 days followed by CCl4 administration after 2 hrs post-compound treatment measured after 16 hrs post-CCl4 injection; type: functional, organism-based; conditions: time 186.0 hrs
Mus musculus [23] = assay: Anti-MASH activity in HFD-fed CCl4-treated male C57BL/6 mouse assessed as reduction in hepatic triglyceride level at 150 mg/kg, po qd treated for 4 weeks by ELISA; type: functional, organism-based
[24] = Toxicity in male Sprague-Dawley rat model of CCl4-induced ALI assessed as body weight change at 100 mg/kg, IG qd pretreated with compound for 7 days followed by CCl4 administration after 2 hrs post-compound treatment measured after 16 hrs post-CCl4 injection; type: organism-based; conditions: in vivo, po, 186 h
Mus musculus [25] = assay: Anti-MASH activity in HFD-fed CCl4-treated male C57BL/6 mouse assessed as reduction in hepatocyte ballooning in liver at 150 mg/kg, po qd treated for 4 weeks by H and E/Oil red O staining based analysis; type: functional, organism-based
Rattus norvegicus [26] = assay: Hepatoprotective activity in male Sprague-Dawley rat model of CCl4-induced ALI assessed as restoration of serum ALT level at 100 mg/kg, IG qd pretreated with compound for 7 days followed by CCl4 administration after 2 hrs post-compound treatment measured after 16 hrs post-CCl4 injection; type: functional, organism-based; conditions: time 186.0 hrs
Rattus norvegicus [27] = assay: as §1, with “acute” for “white granular”, “deposition” for “in liver”, “injection by oil red O staining based analysis” for “injection”; type: functional, organism-based; conditions: time 186.0 hrs
[28] = Tmax in overnight-fasted male Sprague-Dawley rat at 150 mg/kg, po measured up to 12 hrs by HPLC analysis; type: ADME, organism-based; conditions: in vivo
[29] = MRT (0 to infinity) in overnight-fasted male Sprague-Dawley rat at 150 mg/kg, po measured up to 12 hrs by HPLC analysis; type: ADME, organism-based; conditions: in vivo
Mus musculus [30] = assay: Anti-MASH activity in HFD-fed CCl4-treated male C57BL/6 mouse assessed as reduction in inflammation in liver at 150 mg/kg, po qd treated for 4 weeks by H and E/Oil red O staining based analysis; type: functional, organism-based
Mus musculus [31] = assay: Anti-MASH activity in HFD-fed CCl4-treated male C57BL/6 mouse assessed as reversal of hepatopancreas somatic indices at 150 mg/kg, po qd treated for 4 weeks; type: functional, organism-based
[32] = Apparent clearance during terminal phase in overnight-fasted male Sprague-Dawley rat at 150 mg/kg, po measured up to 12 hrs by HPLC analysis; type: ADME, organism-based; conditions: in vivo, read-out: CLz/F (converted)
[33] = Terminal half life in overnight-fasted male Sprague-Dawley rat at 150 mg/kg, po measured up to 12 hrs by HPLC analysis; type: ADME, organism-based; conditions: in vivo, read-out: beta t1/2 (converted)
Mus musculus [34] = assay: Anti-MASH activity in HFD-fed CCl4-treated male C57BL/6 mouse assessed as reduction in fat accumulation in liver at 150 mg/kg, po qd treated for 4 weeks by Oil red O staining based analysis; type: functional, organism-based
Rattus norvegicus [35] = assay: Hepatoprotective activity in male Sprague-Dawley rat model of CCl4-induced ALI assessed as reduction in dullness of liver margin at 100 mg/kg, IG qd pretreated with compound for 7 days followed by CCl4 administration after 2 hrs post-compound treatment measured after 16 hrs post-CCl4 injection; type: functional, organism-based; conditions: time 186.0 hrs

Compound: COc1cc(C2Oc3cc([C@H]4Oc5cc(O)cc(O)c5C(=O)[C@@H]4O)ccc3OC2CSSCC2Oc3ccc([C@H]4Oc5cc(O)cc(O)c5C(=O)[C@@H]4O)cc3O[C@H]2c2ccc(O)c(OC)c2)ccc1O (single isomer, unassigned)
- IC50 [1]: > 200 µM
- solubility [2]: > 1000 mg/mL
- IC50 [3]: 158 µM
- solubility [4]: 246 mg/mL (≈ 247 mM)
- solubility [5]: 523 mg/mL (≈ 526 mM)
- Activity [6]: 75.2%
- Activity [7]: 40.6%
- Activity [8]: 53.9%
- IC50 [9]: 28.7 µM
- solubility at 10 min [10]: 0.19 mg/mL (≈ 0.191 mM)

Compound: COc1cc([C@@H]2Oc3cc([C@H]4Oc5cc(O)cc(O)c5C(=O)[C@@H]4O)ccc3OC2CSC(C)=O)ccc1O (stereo not given in full)
- IC50 [1]: > 200 µM
- solubility [2]: > 1000 mg/mL
- IC50 [3]: > 200 µM
- solubility [4]: > 1000 mg/mL
- solubility [5]: > 1000 mg/mL
- Activity [6]: 83.8%
- Activity [7]: 36.6%
- Activity [8]: 39.3%
- IC50 [9]: 24 µM
- solubility at 10 min [10]: 0.3 mg/mL (≈ 0.555 mM)

Compound: COc1cc([C@@H]2Oc3cc([C@H]4Oc5cc(O)cc(O)c5C(=O)[C@@H]4O)ccc3OC2CO)ccc1O (stereo not given in full)
- IC50 [1]: > 200 µM
- Activity [11]: Non-toxic
- Activity (Rattus norvegicus [12]): Active
- Activity (Mus musculus [13]): Active
- solubility [2]: 367 mg/mL (≈ 761 mM)
- IC50 [3]: > 200 µM
- Activity (Rattus norvegicus [14]): Active
- Activity (Rattus norvegicus [15]): Active
- Cmax [16]: 194 ng/mL
- solubility [4]: 10.6 mg/mL (≈ 22 mM)
- Activity (Rattus norvegicus [17]): Active
- solubility [5]: 15.4 mg/mL (≈ 31.9 mM)
- Activity (Rattus norvegicus [18]): Active
- Activity (Mus musculus [19]): Active
- AUC(0-inf) [20]: 494 ng·h/mL
- Vd/F [21]: 447 L
- Activity [6]: 39.6%
- Activity (Rattus norvegicus [22]): Active
- Activity (Mus musculus [23]): Active
- Activity [24]: Non-toxic
- Activity (Mus musculus [25]): Active
- Activity (Rattus norvegicus [26]): Active
- Activity (Rattus norvegicus [27]): Active
- Tmax [28]: 1.02 h
- MRT inf [29]: 5.22 h
- Activity (Mus musculus [30]): Active
- Activity (Mus musculus [31]): Active
- Activity [7]: 34.6%
- CL/F [32]: 1250 mL/min
- half-life [33]: 2.45 h
- Activity (Mus musculus [34]): Active
- Activity [8]: 47.2%
- IC50 [9]: > 100 µM
- Activity (Rattus norvegicus [35]): Active
- solubility at 10 min [10]: 0.14 mg/mL (≈ 0.29 mM)
